Peptide text beside a SMILES is read from it.
Experiments:
[1] = test system: transfectoma cell line which is an SP2/0 derived line engineered to produce an anti-cytokine monoclonal antibody (mAb); assay: Effect of Gly-Lys-Gly on growth and productivity of a transfectoma cell line in MET1.5 shaker flask culture; format: cell-based; details: for viable cell density: unsupplemented control 2.0×10^6
Protocol: Two preparations of the tri-peptide, Gly-L-Lys-Gly, were compared for their effect on growth and productivity of a transfectoma cell line which is an SP2/0 derived line engineered to produce an anti-cytokine monoclonal antibody (mAb). The final lot of GKG prepared in Example V was compared to commercial prepared GKG purchased from Bachem (King of Prussia, Pa.).
Cells were cultured in a proprietary defined medium, MET1.5, supplemented with 7.0 mM glutamine, 10 g/L MHX, and 2.0 g/L sodium bicarbonate. The Centocor-made GKG peptide in quantities of 0.35 g/L, 0.70 g/L, and 1.40 g/L were added to 250 mL of MET 1.5 media. The GKG from Bachem was added to 250 mL of MET 1.5 media at concentrations of 0.38 g/L, 0.76g/L, and 1.5 g/L. The cells were cultured in 125 mL shaker flasks and were rotating at 125 RPM. The culture was also incubated at 37° C. in a humidified atmosphere with 5% CO2 and 95% air. The culture volume was 40 mL. Two control flasks and two flasks per peptide concentration were sampled at days zero, one, two, three, four, five, and six for viable cell density and antibody determination.
The cultures were inoculated at a density of 2×10^5 cells/mL and were passaged three times (split every three days). On the third passage they were incubated until the decline phase.
Viable cells and dead cells were calculated by trypan exclusion with the Cedex cell counter. The mAb concentrations were determined by immunoturbidity via the IMMAGE 800 nephelometer (Beckman, Coulter, Brea, Calif.). The effects of the Gly-Lys-Gly peptide on antibody secretion by a production cell line was gauged by calculating integral viable density (IVCC), and titer. IVCC was calculated by integrating the areas under the growth curves. Specific antibody productivity was calculated as the antibody production per day (titer) divided by IVCC.

CHO line = assay: Effect of Gly-Lys-Gly on growth and productivity of a CHO line in chemically defined CHO medium; format: cell-based, Chinese Hamster; details: CHO medium supplemented at the same concentrations as in the SP2/0 test; results not shown
Excerpt: In a previous experiment, a proprietary chemically defined Chinese Hamster Ovary (CHO) medium was supplemented with both the Centocor and Bachem-made peptides at the same concentrations above.

Compound | viable cell density ([1]; 0.38 g/L peptide in MET1.5, mean of two samples) | titer ([1]; 0.76 g/L peptide in MET1.5, rose from 117 mg/L without supplement, mean of two samples) [mg/L] | increase in titer (concentration of mAb) ([1]; 1.5 g/L peptide in MET1.5) [%] | viable cell density and percent viability increases ([1]; 1.5 g/L peptide in MET1.5) | effect on growth and productivity (CHO line) | viable cell density ([1]; 0.35 g/L peptide in MET1.5, mean of two samples) | enhancement of the product yield or viable cell density ([1]; 0.7 g/L peptide in MET1.5) | increase in titer (concentration of mAb) ([1]; 1.4 g/L peptide in MET1.5) [%] | viable cell density and percent viability increases ([1]; 1.4 g/L peptide in MET1.5)
Gly-L-Lys-Gly [Bachem-made-peptide] | 2.6×10^6 viable cells/mL | 137 | 34 | could not be observed | minimal to no effect |  |  |  | 
NCCCC[C@H](NC(=O)CN)C(=O)NCC(=O)O [Centocor-made peptide, Glycyl-L-Lysyl-Glycine] (H-Gly-Lys-Gly-OH) |  |  |  |  | minimal to no effect | 2.5×10^6 viable cells/mL | No enhancement | 21 | could not be observed

Source: patent US20070213505A1, “Solution Synthesis of Peptide Cell Growth Stimulators” (priority 2006, published 2007)
